Legend:
[1] = tested on: HSV-2 (6); test: Infectivity of HSV-2 (6), acyclovir-resistant strain, pretreated with SLS on Vero cells (PFU); format: cell-based, Herpes simplex virus type-2
Method: The effect of pretreating different strains of herpes viruses with SLS or DS on their viral infectivities to susceptible cells has been evaluated. In brief, cells were seeded in 24 well-plates (Costar, Montreal, QC, Canada). Prior to infection, the virus was either suspended in culture medium or phosphate buffered saline (PBS), or incubated with different concentrations of SLS in PBS for 1 h at 37° C. At confluency, cells were incubated with viral suspensions by centrifuging the plates (750× g for 45 min at 20° C.) to allow virus adsorption. Virus was removed and cell sheets were then overlaid with 0.5 ml of 0.6% agarose Seaplaque (Marine Colloids, Rockland, Md.) prepared in appropriate culture medium. The plates were incubated for 2 days at 37° C. Cells were then fixed with 10% formaldehyde in PBS for 20 min, washed with deionized water and stained with 0.05% methylene blue. Viral infectivity was evaluated via the determination of Plaque Forming Units (PFU).

[2] = tested on: HIV-1 (strain NL4-3); test: Infectivity of HIV-1 (strain NL4-3) pretreated with SLS to 1G5 cells (luciferase activity); format: cell-based; conditions: virus pretreated with 500 μM SLS for 1 h at 37° C.; FIG. 3
Method: The effect of pretreating HIV-1 (strain NL4-3) with SLS on its infectivity to 1G5 cells, a Jurkat E6-1 derivative that harbors two stably integrated constructs made up of the luciferase gene under the control of the HIV-1SF2 LTR, has been also evaluated. In brief, prior to infection, the virus was incubated with either culture medium or 500 μM SLS for 1 h at 37° C. Cells (1×10^5 cells/well) were then incubated with HIV-1 strain NL4-3 (10 ng of p24) for 2 h at 37° C. under a 5% CO2 atmosphere. Afterwards, cells were washed, resuspended in 200 μl of complete culture medium and transferred in a 96-well flat-bottomed tissue culture plate (Microtest III, Falcon; Becton Dickinson, Lincoln Park, N.J.). After a 48 h incubation time at 37° C., cells were lysed, subject to a freeze-thaw cycle and luciferase activity was monitored using a microplate luminometer (MLX; Dynex Technologies, Chantilly, Va.).

[3] = tested on: glycoprotein D gene of HSV-1 (strain F); test: Quantification of HSV glycoprotein D gene in Vero cells infected with pretreated virus (hybridization, densitometry); format: cell-based, Herpes simplex virus type-1; conditions: 48 h infection
Method: The quantification of the glycoprotein D gene of HSV-1 (strain F) pretreated with SLS was also evaluated in Vero cells in order to determine the presence of viral DNA in the infected cells. In brief, HSV-1 (strain F) was pretreated with varying SLS concentrations (12.5, 25, 50, 75 and 100 μM) in EMEM +2% FBS for 1 h at 37° C. Vero cells (80–90% confluent) were infected with the virus (100 PFU/ml in 20 ml) for 48 h at 37° C. in a 5% CO2 atmosphere. The culture medium was removed and cell sheet was washed twice with 1× HBSS. Cells were scrapped off from the dishes and resuspended in EMEM +2% FBS. Total DNA was extracted using a standard phenol/chloroform procedure. Quantitation of total DNA was achieved using the Burton procedure. The probe used for this study corresponds to a part of glycoprotein D of HSV-2 (strain 333), generated by PCR using the following primers: • P1 (5′-[…]-3′) and • P2 (5′-[…]-3′) and was [^32P]-labeled by random priming. Hybridization was performed at 65° C. in 0.25 M Na2HPO4 (pH 6.8 with orthophosphoric acid) and 7% SDS. Washes were done in 40 mM Na2HPO4 (pH 6.8 with orthophosphoric acid) and 1% SDS for 20 min at 65° C. followed by 20 min at 25° C.
Following a 48 h incubation, cells were collected and total DNA was extracted. […] Quantitative measurements of HSV-1 DNA levels obtained by scanning densitometry of the autoradiogram were similar (Panel B).

[4] = tested on: HSV-2 (strain 22); test: Murine intranasal infection model, HSV-2 pretreated with SLS; format: in vivo, Balb/c mice
Method: The effect of pretreating HSV-2 (strain 22) with SLS on viral infectivity has also been evaluated in a murine intranasal infection model. In brief, female Balb/c mice (Charles River Breeding Laboratories Inc., St-Constant, QC, Canada) 4 weeks-old were used throughout this study. Prior to the infection, HSV-2 (strain 22) was incubated for 1 h at 37° C. with PBS or with different concentrations of SLS (6.25, 25 or 100 μM) to reach a final viral inoculum of 2,000 PFU/20 μl. Mice were slightly anesthetized using Aerrane® (Isoflurane, USP; Janssen, North York, ON, Canada) and viral suspension (20 μl total volume) was applied into the external left nare of mice. Mice were then returned to their cages and survival was evaluated daily.

[5] = tested on: HSV-2 (strain 333); test: Murine intravaginal infection model, gel formulations applied prior to infection; format: in vivo, Balb/c mice; conditions: 2.5% SLS alone intravaginally 5 min prior to infection
Method: The efficacy of gel formulations to prevent the genital transmission of HSV-2 has been evaluated in a murine intravaginal infection model. In brief, female Balb/c mice aged 4 weeks were used for this study. To increase susceptibility of mice to herpes, 2.5 mg of progesterone (Depo-Provera) was administered subcutaneously to each mouse 7 days prior to and one day prior to inoculation with HSV-2. Anesthetized mice were inoculated with 5 μl of 2.4×10^7 pfu/ml of HSV-2 (strain 333) after swabbing the vagina with a calcium alginate thin tipped swab. To determine the efficacy of the gel formulations to block herpes infection, 15 μl of the gel was delivered with a pipette tip into the vagina a few minutes prior to the inoculation. The pipette tip was moved in and out four times to simulate stirring action of sexual intercourse while being cautious not to cause any bleeding.

[6] = tested on: HSV-1 (strain F); test: Infectivity of HSV-1 (strain F) to Vero cells after treatment with SLS or DS (plaque forming units); format: cell-based, Herpes simplex virus type-1; conditions: Vero cells preincubated 1 h at 37° C. with 6.25 to 100 μM SLS prior to infection; data not shown
[7] = tested on: HSV-2; conditions: Howett et al., 1999; cited from earlier work
[8] = tested on: HIV-1; conditions: Howett et al., 1999; cited from earlier work
[9] = tested on: Vero cells; test: Viability of Vero cells exposed to SLS or DS (MTS test); conditions: Vero cells exposed 1 h at 37° C. to concentrations as in FIG. 1 and Table 1; data not shown
[10] = viral suspension pretreated with 100 μM SLS

CCCCCCCCCCCCOS(=O)(=O)[O-].[Na+] [SLS, Sodium lauryl sulfate]
PFU (% of control) for HSV-2 (6) ([1]; virus pretreated with 6.25 μM SLS for 1 hour at 37° C.): 105.3 ± 12.4 % of control | PFU (% of control) for HSV-2 (6) ([1]; virus pretreated with 12.5 μM SLS for 1 hour at 37° C.): 82.1 ± 40.7 % of control | PFU (% of control) for HSV-2 (6) ([1]; virus pretreated with 25 μM SLS for 1 hour at 37° C.): 51.1 ± 30.1 % of control | PFU (% of control) for HSV-2 (6) ([1]; virus pretreated with 50 μM SLS for 1 hour at 37° C.): 0 % of control | HIV-1 infectivity to 1G5 cells [2]: almost completely inhibited | HSV-1 DNA levels (glycoprotein D gene) ([3]; virus pretreated with 75 μM SLS for 1 h at 37° C.): 65.1 % of control values | HSV-1 DNA levels (glycoprotein D gene) ([3]; virus pretreated with 100 μM SLS for 1 h at 37° C.): 34.9 % of control values | expression of the glycoprotein D gene compared to control ([3]; virus pretreated with 12.5, 25 and 50 μM SLS for 1 h at 37° C.): No major modification | mice that survived the infection ([4]; viral inoculum pretreated with 6.25 μM SLS): 67% | mice that survived the infection ([4]; viral inoculum pretreated with 25 μM SLS): 67% | mice that survived the infection [4, 10]: all | signs of illness [4, 10]: did not demonstrate any sign of illness | mice that survived the infection [5]: all | signs of illness ([5]; up to 16 days post-infection): did not demonstrate any sign of illness | infectivity of HSV-1 (strain F) after preincubation of Vero cells (not virus) with SLS [6]: did not result in a loss of infectivity | inactivation of HSV-2 [7]: potent inactivator | inactivation of HIV-1 [8]: potent inactivator | cytotoxicity (viability, MTS test) [9]: No signs of cytotoxicity

Reference: US7192607B2, “Formulations for the prevention or the treatment of diseases affecting mucosae or skin, or for pregnancy prevention, and an applicator for the delivery of topical formulations into mucosal cavities” (Infectio Recherche Inc, priority 2002, dated 2007)
